According to patent publication US20240285575A1, “NANOPARTICLES WITH ANTI-INFLAMMATORY PROPERTIES AND ENHANCED PENETRATION ACROSS THE BIOLOGICAL BARRIERS TO DELIVER ENCAPSULATED DRUGS” (The Board of Trustees of The University of Alabama, priority 2023, published 2024):

Assays:
FHs74 cells = conditions: previous study; cited from earlier work
FR on FHs74 cells = assay: Folate receptor blocking studies in FHs74 cells; assay type: cell-based, human; conditions: blocking of P2Ns-NAR uptake
Description: FR Specificity to NAR. The FR-mediated transport of P2Ns-NAR was confirmed by performing blocking studies. Folic acid (FA) strongly binds to FR, with the FA frequently being employed as a targeting ligand on nanoparticles for receptor-mediated drug delivery.^29,30 On the other hand, FA in larger doses is also associated with adverse side effects including toxicity to humans.^16,31,32 The use of NAR as an FR-specific ligand could potentially overcome this limitation and provide a safer alternative for receptor-mediated drug delivery. Selective blockade of FR on FHs74 cells was performed to evaluate the FR-mediated uptake of P2Ns-NAR. Cells were saturated with varying concentrations of blocking agents: antifolate antibody (AB), FA, and MTHFA.

| SMILES | Time to saturate FHs74 cells (FHs74 cells) | Concentration of blocking agent needed for blocking levels similar to FA (FR on FHs74 cells) |
| --- | --- | --- |
| Nc1nc2ncc(CNc3ccc(C(=O)N[C@@H](CCC(=O)O)C(=O)O)cc3)nc2c(=O)[nH]1 [FA, Folic acid] | less than 1 hour | – |
| CN1c2c(nc(N)[nH]c2=O)NCC1CNc1ccc(C(=O)N[C@@H](CCC(=O)O)C(=O)O)cc1 (some centres unmarked) [MTHFA, methyltetrahydrofolic acid] | – | Higher concentrations |
